Assay results taken from patent US20120309717A1, “COMPOUNDS, METHODS AND PHARMACEUTICAL COMPOSITIONS FOR INHIBITING PARP” (EISAI INC., priority 2003, published 2012).

What was measured:
[1] = molecular target: T1, purified recombinant human PARP (Homo sapiens, UniProt P09874); experiment: PARP enzyme assay (IC50); format: biochemical; settings: approximate values
T1 construct: purchased Trevigan (Gaithersburg, Md.)
Method: A convenient method to determine IC50 of a PARP inhibitor compound is a PARP assay using purified recombinant human PARP from Trevigan (Gaithersburg, Md.), as follows: The PARP enzyme assay is set up on ice in a volume of 100 microliters consisting of 100 mM Tris-HCl (pH 8.0), 1 mM MgCl2, 28 mM KCl, 28 mM NaCl, 0.1 mg/ml of DNase I activated herring sperm DNA (Sigma, Mo.), 3.0 micromolar [3H]nicotinamide adenine dinucleotide (470 mci/mmole), 7 micrograms/ml PARP enzyme, and various concentrations of the compounds to be tested. The reaction is initiated by incubating the mixture at 25° C. After 15 minutes of incubation, the reaction is terminated by adding 500 microliters of ice cold 20% (w/v) trichloroacetic acid. The precipitate formed is transferred onto a glass fiber filter (Packard Unifilter-GF/B) and washed three times with ethanol. After the filter is dried, the radioactivity is determined by scintillation counting.

[2] = test system: P388D1 cells; experiment: H2O2 induced cell death assay (cytoprotective effect, LDH release); format: cell-based, murine; settings: Mus musculus, approximate values, concentration for 50% reduction of cell death, 2 mM H2O2, 4 h
Method: We used a H2O2 induced cell death assay to determine the cytoprotective effect of PARP inhibitors. P388D1 cells (CCL-46, ATCC), derived from a murine macrophage-like tumor, were maintained in Dulbeco's Modified Eagle Medium (DMEM) with 10% horse serum and 2 mM L-glutamine. The cytotoxicity assay was set up in a 96-well plate. In each well, 190 ul cells were seeded at 2×10^6/ml density. To determine the EC50, the concentration of a compound required to achieve 50% reduction of cell death, a dose response experiment was conducted. PARP inhibitors were added to the media to a final concentration of 0.01, 0.03, 0.1, 0.3, 1, 3, 10, 30 uM. After 15 min incubation with a PARP inhibitor, 5 ul of freshly prepared H2O2 were added to the cells to a final concentration of 2 mM. Cells were returned to 37° C. incubator for 4 h. At the end of incubation, 25 ul of supernatant were sampled from the cell media to determine the level of lactate dehydrogenase (LDH) released from dead cells. The LDH activity was determined by monitoring the rate of decrease of NADH absorbency at 340 nm. The group without drug treatment was used to calculate total cell death due to H2O2 treatment. Each data point was an average of quadruplicate. The EC50 was determined from a dose response curve.

[3] = test system: endotoxic shock; settings: cited from earlier work
[4] = test system: ischemia and reperfusion of the heart; settings: cited from earlier work
[5] = test system: human fibroblast cells lines (W138 or BJ cells); experiment: proliferative capacity and lifespan of human fibroblast cells; format: cell-based
Method: At the time of subdivision, the media is aspirated, and the cells rinsed with phosphate buffer saline (PBS) and then trypsinized. The cells are counted with a Coulter counter and plated at a density of 10^5 cells per cm^2 in 6-well tissue culture plates in DMEM/199 medium supplemented with 10% bovine calf serum and varying amounts (0.10 μM, and 1 mM: from a 100× stock solution in DMEM/M199 medium) of a PARP inhibitor. This process is repeated every 7 days until the cells appear to stop dividing. The untreated (control) cells reach senescence and stop dividing after about 40 days in culture. […] The cells treated with 1 mM 3-AB will still divide after 60 days in culture.

[6] = test system: colitis; settings: rats; cited from earlier work

T1 sequence (P09874 whole entry): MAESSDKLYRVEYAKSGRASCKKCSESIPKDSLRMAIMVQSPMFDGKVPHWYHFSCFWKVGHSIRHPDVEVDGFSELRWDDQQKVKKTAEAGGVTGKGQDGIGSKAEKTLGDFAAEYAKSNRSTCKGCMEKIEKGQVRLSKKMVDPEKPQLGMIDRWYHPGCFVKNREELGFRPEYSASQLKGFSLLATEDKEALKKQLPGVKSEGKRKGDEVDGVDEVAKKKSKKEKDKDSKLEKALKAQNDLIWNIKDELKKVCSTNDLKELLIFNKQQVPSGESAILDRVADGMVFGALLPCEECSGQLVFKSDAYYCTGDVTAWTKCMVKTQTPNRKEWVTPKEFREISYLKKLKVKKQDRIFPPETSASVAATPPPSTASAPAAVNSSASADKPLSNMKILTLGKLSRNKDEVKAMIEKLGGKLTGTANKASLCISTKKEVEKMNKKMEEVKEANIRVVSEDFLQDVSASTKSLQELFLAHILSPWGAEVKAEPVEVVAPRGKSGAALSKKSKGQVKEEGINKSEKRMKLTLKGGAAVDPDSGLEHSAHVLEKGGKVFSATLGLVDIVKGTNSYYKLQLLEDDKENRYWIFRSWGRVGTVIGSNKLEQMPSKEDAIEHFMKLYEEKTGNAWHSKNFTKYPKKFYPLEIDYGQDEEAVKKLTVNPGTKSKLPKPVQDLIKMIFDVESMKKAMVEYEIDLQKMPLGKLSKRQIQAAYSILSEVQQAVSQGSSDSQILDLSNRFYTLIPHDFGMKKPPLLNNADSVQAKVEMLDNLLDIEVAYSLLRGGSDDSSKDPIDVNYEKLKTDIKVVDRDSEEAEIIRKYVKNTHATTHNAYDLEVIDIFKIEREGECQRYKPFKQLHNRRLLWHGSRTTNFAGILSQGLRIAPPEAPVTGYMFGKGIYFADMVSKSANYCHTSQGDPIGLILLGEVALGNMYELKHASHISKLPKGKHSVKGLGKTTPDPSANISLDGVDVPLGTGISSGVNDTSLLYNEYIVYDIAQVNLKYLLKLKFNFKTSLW

Compound | IC50 ([1]; Table I) [nM] | IC50 ([1]; Table II) [nM] | EC50 ([2]; Table II) [nM] | also measured
NC1=Nc2n[nH]c(=O)c3cccc(c23)N1 | 91 |  |  | EC50 ([2]; Table I): 640 nM
CN(C)c1ccc(N=Nc2ccc(S(=O)(=O)NCc3ccc4c(c3)-c3n[nH]c(=O)c5cccc(c35)O4)cc2)cc1 [Compound 55, 4-(4-Dimethylamino-phenylazo)-N-(3-oxo-2,3-dihydro-7-oxa-1,2-diaza-benzo[de]anthracen-10-ylmethyl)-benzenesulfonamide] |  |  |  | melting point: > 300 °C
O=c1[nH]nc2c3c(cccc13)Oc1ccc(CN3CCN(CCO)CC3)cc1-2 |  | 101 | 80 | 
O=c1[nH]nc2c3c(cccc13)NC(CNCCCc1ccccc1)=N2 | 87 |  |  | EC50 ([2]; Table I): 10 nM
C=COC(=O)c1ccc2c(c1)-c1n[nH]c(=O)c3cccc(c13)O2 |  | 89 |  | 
NC(=O)c1cccnc1 [nicotinamide] |  |  |  | protection against vascular failure [3]: protects against delayed, NO-mediated vascular failure
O=C(O)C(O)C(O)C(=O)NCc1ccc2c(c1)-c1n[nH]c(=O)c3cccc(c13)O2 (centres unmarked) [Compound 52, 2,3-Dihydroxy-N-(3-oxo-2,3-dihydro-7-oxa-1,2-diaza-benzo[de]anthracen-10-ylmethyl)-succinamic acid] |  |  |  | melting point: 181 to 185 °C
O=c1[nH]nc2c3c(cccc13)NC(CN1CCCCC1)=N2 | 19 |  |  | EC50 ([2]; Table I): 120 nM
O=C(CCl)OCc1ccc2c(c1)-c1n[nH]c(=O)c3cccc(c13)O2 |  | 177 |  | 
CN(C)CCN(C)Cc1ccc2c(c1)-c1n[nH]c(=O)c3cccc(c13)O2 [10-{[(2-Dimethylamino-ethyl)-methyl-amino]-methyl}-2H-7-oxa-1,2-diaza-benzo[de]anthracen-3-one] |  | 100 | 170 | 
O=c1[nH]nc2c3c(cccc13)Oc1ccc(CN3CCNCC3)cc1-2 |  | 48 | 270 | 
O=c1[nH]nc2c3c(cccc13)NC(CN1CCCC1)=N2 | 18 |  |  | 
CCOP(=O)(NCc1ccc2c(c1)-c1n[nH]c(=O)c3cccc(c13)O2)OCC |  | 275 |  | 
O=c1[nH]nc2c3c(cccc13)Oc1ccc(CN(CCO)CCO)cc1-2 [Compound 47, 10-{[Bis-(2-hydroxy-ethyl)-amino]-methyl}-2H-7-oxa-1,2-diaza-benzo[de]anthracen-3-one] |  |  |  | melting point: 222 to 225 °C
Oc1cccc2c(O)nccc12 [1,5-dihydroxyisoquinoline] |  |  |  | reduction in infarct size ([4]; 1 mg/kg): 38-48%
NNC(=O)C1=Cc2n[nH]c(=O)c3ccc(NN)c(c23)N1 | 2790 |  |  | 

Compound | IC50 ([1]; Table I) [nM] | IC50 ([1]; Table II) [nM] | EC50 ([2]; Table II) [nM] | also measured
O=C(O)c1ccc2c(c1)-c1n[nH]c(=O)c3cccc(c13)O2 |  | 167 |  | 
CN(C)CC(=O)OCc1ccc2c(c1)-c1n[nH]c(=O)c3cccc(c13)O2 [Compound 59, Dimethylamino-acetic acid 3-oxo-2,3-dihydro-7-oxa-1,2-diaza-benzo[de]anthracen-10-ylmethyl ester] |  |  |  | melting point: 227 to 230 °C
O=C(CCP(=O)(OCc1ccccc1)OCc1ccccc1)OCc1ccc2c(c1)-c1n[nH]c(=O)c3cccc(c13)O2 |  | 413 |  | 
NCc1ccc2c(c1)-c1n[nH]c(=O)c3cccc(c13)O2 |  | 19 | 2080 | 
NC(=O)c1cccc(N)c1 [3-amino-benzamide] |  |  |  | effect on lifespan of the cells ([5]; 10 μM): little or no effect; effect on lifespan of the cells ([5]; 100 μM): lengthen the lifespan of the cells; effect on lifespan and proliferative capacity of the cells ([5]; 1 mM): dramatically increases the lifespan and proliferative capacity; time in culture at which cells still divide ([5]; 1 mM, untreated cells stop after about 40 days): > 60 days; reduction in infarct size in the heart ([4]; single injection 10 mg/kg, one minute before occlusion or before reperfusion): 32-42%; inflammatory response, distal colon [6]: reduced the inflammatory response
CCN1CCN(Cc2ccc3c(c2)-c2n[nH]c(=O)c4cccc(c24)O3)CC1 |  | 60 | 120 | 
O=c1[nH]nc2c3c(cccc13)NC(CO)=N2 | 26 |  |  | EC50 ([2]; Table I): 360 nM
N=C(N)NCc1ccc2c(c1)-c1n[nH]c(=O)c3cccc(c13)O2 |  | 35 | 1000 | 
O=c1[nH]nc2c3c(cccc13)Oc1ccc(COP(=O)(OCc3ccccc3)OCc3ccccc3)cc1-2 [Compound 60, Phosphoric acid dibenzyl ester 3-oxo-2,3-dihydro-7-oxa-1,2-diaza-benzo[de]anthracen-10-ylmethyl ester] |  |  |  | melting point: 223 to 225 °C
CN(C)CC1=Nc2n[nH]c(=O)c3cccc(c23)N1 | 19 |  |  | EC50 ([2]; Table I): 130 nM
O=c1[nH]nc2c3c(cccc13)NC=N2 | 39 |  |  | EC50 ([2]; Table I): 350 nM
O=c1[nH]nc2c3c(cccc13)Oc1ccc(CN3CCC(N4CCCC4)CC3)cc1-2 [drawing 63] |  |  | 300 | 
O=c1[nH]nc2c3c(cccc13)Oc1ccc(CN3CCC(N4CCCC4)CC3)cc1-2 [Compound 48, 10-(4-Pyrrolidin-1-yl-piperidin-1-ylmethyl)-2H-7-oxa-1,2-diaza-benzo[de]anthracen-3-one] |  |  |  | melting point: 258 to 264 °C
O=c1[nH]nc2c3c(cccc13)Oc1ccc(CN3CCOCC3)cc1-2 |  | 67 | 300 | 
NOCc1ccc2c(c1)-c1n[nH]c(=O)c3cccc(c13)O2 |  | 165 | 470 | 
CC(=O)OC(C(=O)O)C(OC(C)=O)C(=O)NCc1ccc2c(c1)-c1n[nH]c(=O)c3cccc(c13)O2 (centres unmarked) |  | 35 | 2080 | 

Now from value to compound, other results behind:

IC50 ([1]; Table I) [nM] | IC50 ([1]; Table II) [nM] | Compound | EC50 ([2]; Table II) [nM] | also measured
 | 1300 | CN(C)c1ccc(/N=N/c2ccc(S(=O)(=O)NCc3ccc4c(c3)-c3n[nH]c(=O)c5cccc(c35)O4)cc2)cc1 |  | 
 | 34 | O=c1[nH]nc2c3c(cccc13)Oc1ccc(COP(=O)(O)O)cc1-2 | 750 | 
120 |  | CC1=Cc2n[nH]c(=O)c3ccc(Cl)c(c23)N1 |  | 
 | 92 | O=c1[nH]nc2c3c(cccc13)Oc1ccc(CO)cc1-2 | 410 | 
 | 74 | CN1CCN(Cc2ccc3c(c2)-c2n[nH]c(=O)c4cccc(c24)O3)CC1 [drawing 46] | 130 | 
14 |  | NNC(=O)C1=CNc2cccc3c(=O)[nH]nc1c23 |  | EC50 ([2]; Table I): 100 nM
21 |  | NNC(=O)C1=Nc2n[nH]c(=O)c3cccc(c23)N1 |  | EC50 ([2]; Table I): 240 nM
26 |  | NNC(=O)C1=Cc2n[nH]c(=O)c3cccc(c23)N1 |  | EC50 ([2]; Table I): 510 nM
18 |  | O=c1[nH]nc2c3c(cccc13)N=C(CN1CCOCC1)N2 |  | 
 | 125 | CN(C)CC(=O)OCc1ccc2c(c1)-c1n[nH]c(=O)c3cccc(c13)O2 [drawing 54] |  | 
160 |  | O=C(O)C1=Cc2n[nH]c(=O)c3cccc(c23)N1 |  | EC50 ([2]; Table I): 1700 nM
 | 30 | O=C(NCc1ccc2c(c1)-c1n[nH]c(=O)c3cccc(c13)O2)C1CCCN1 (centres unmarked) | 80 | 
 | 128 | O=c1[nH]nc2c3c(cccc13)Oc1ccc(CN3CCN(CCOCCO)CC3)cc1-2 | 75 | 
749 |  | NNC(=O)C1=CNc2c(Cl)ccc3c(=O)[nH]nc1c23 |  | 
 | 86 | O=c1[nH]nc2c3c(cccc13)Oc1ccc(COP(=O)(OCc3ccccc3)OCc3ccccc3)cc1-2 [drawing 55] | 520 | 
 | 21 | O=C(O)C(O)C(O)C(=O)NCc1ccc2c(c1)-c1n[nH]c(=O)c3cccc(c13)O2 (centres unmarked) [drawing 41] | 5270 | 
 | 38 | O=c1[nH]nc2c3c(cccc13)Oc1ccc(CN(CCO)CCO)cc1-2 [drawing 52] |  | 
